Experimental data: patent US8211886B2, “Thiadiazinone derivatives” (Merck Patent Gesellschaft mit beschrankter Haftung, priority 2007, dated 2012)

biological target: T1, Met kinase (Homo sapiens, UniProt P08581); assay: Met kinase inhibition (enzyme assay), flashplate method; assay type: biochemical; details: 33P-ATP, substrate pAGLT, 3 hrs at room temperature
T1 construct: 6His (N); purchased Upstate 14-526; host or cells: Sf21 insect cells (S. frugiperda), baculovirus
Source text: According to the manufacturer's data (Met, active, upstate, catalogue No. 14-526), Met kinase is expressed for the purposes of protein production in insect cells (Sf21; S. frugiperda) and subsequent affinity-chromatographic purification as “N-terminal 6His-tagged” recombinant human protein in a baculovirus expression vector.
Flashplate Method (Met Kinase)
The test plates used are 96-well Flashplate^R microtitre plates from Perkin Elmer (Cat. No. SMP200). The components of the kinase reaction described below are pipetted into the assay plate. The Met kinase and the substrate poly Ala-Glu-Lys-Tyr, (pAGLT, 6:2:5:1), are incubated for 3 hrs at room temperature with radioactively labelled ^33P-ATP in the presence and absence of test substances in a total volume of 100 μl. The reaction is terminated using 150 μl of a 60 mM EDTA solution. After incubation for a further 30 min at room temperature, the supernatants are filtered off with suction, and the wells are washed three times with 200 μl of 0.9% NaCl solution each time. The measurement of the bound radioactivity is carried out by means of a scintillation measuring instrument (Topcount NXT, Perkin-Elmer).
The full value used is the inhibitor-free kinase reaction. This should be approximately in the range 6000-9000 cpm. The pharmacological zero value used is staurosporin in a final concentration of 0.1 mM. The inhibitory values (IC50) are determined using the RS1_MTS program.
Kinase reaction conditions per well: • 30 μl of assay buffer • 10 μl of substance to be tested in assay buffer with 10% of DMSO • 10 μl of ATP (final concentration 1 μM cold, 0.35 μCi of ^33P-ATP) • 50 μl of Met kinase/substrate mixture in assay buffer; • (10 ng of enzyme/well, 50 ng of pAGLT/well)
Solutions used: • Assay buffer: • 50 mM HEPES • 3 mM magnesium chloride • 3 μM sodium orthovanadate • 3 mM manganese(II) chloride • 1 mM dithiothreitol (DTT) • pH=7.5 (to be set using sodium hydroxide) • Stop solution: • 60 mM Titriplex III (EDTA) • ^33P-ATP: Perkin-Elmer; • Met kinase: Upstate, Cat. No. 14-526, Stock 1 μg/10 μl; spec. activity 954 U/mg; • Poly-Ala-Glu-Lys-Tyr, 6:2:5:1: Sigma Cat. No. P1152 In-vivo Tests (FIG. 1/1)

T1 sequence (P08581 25-1390): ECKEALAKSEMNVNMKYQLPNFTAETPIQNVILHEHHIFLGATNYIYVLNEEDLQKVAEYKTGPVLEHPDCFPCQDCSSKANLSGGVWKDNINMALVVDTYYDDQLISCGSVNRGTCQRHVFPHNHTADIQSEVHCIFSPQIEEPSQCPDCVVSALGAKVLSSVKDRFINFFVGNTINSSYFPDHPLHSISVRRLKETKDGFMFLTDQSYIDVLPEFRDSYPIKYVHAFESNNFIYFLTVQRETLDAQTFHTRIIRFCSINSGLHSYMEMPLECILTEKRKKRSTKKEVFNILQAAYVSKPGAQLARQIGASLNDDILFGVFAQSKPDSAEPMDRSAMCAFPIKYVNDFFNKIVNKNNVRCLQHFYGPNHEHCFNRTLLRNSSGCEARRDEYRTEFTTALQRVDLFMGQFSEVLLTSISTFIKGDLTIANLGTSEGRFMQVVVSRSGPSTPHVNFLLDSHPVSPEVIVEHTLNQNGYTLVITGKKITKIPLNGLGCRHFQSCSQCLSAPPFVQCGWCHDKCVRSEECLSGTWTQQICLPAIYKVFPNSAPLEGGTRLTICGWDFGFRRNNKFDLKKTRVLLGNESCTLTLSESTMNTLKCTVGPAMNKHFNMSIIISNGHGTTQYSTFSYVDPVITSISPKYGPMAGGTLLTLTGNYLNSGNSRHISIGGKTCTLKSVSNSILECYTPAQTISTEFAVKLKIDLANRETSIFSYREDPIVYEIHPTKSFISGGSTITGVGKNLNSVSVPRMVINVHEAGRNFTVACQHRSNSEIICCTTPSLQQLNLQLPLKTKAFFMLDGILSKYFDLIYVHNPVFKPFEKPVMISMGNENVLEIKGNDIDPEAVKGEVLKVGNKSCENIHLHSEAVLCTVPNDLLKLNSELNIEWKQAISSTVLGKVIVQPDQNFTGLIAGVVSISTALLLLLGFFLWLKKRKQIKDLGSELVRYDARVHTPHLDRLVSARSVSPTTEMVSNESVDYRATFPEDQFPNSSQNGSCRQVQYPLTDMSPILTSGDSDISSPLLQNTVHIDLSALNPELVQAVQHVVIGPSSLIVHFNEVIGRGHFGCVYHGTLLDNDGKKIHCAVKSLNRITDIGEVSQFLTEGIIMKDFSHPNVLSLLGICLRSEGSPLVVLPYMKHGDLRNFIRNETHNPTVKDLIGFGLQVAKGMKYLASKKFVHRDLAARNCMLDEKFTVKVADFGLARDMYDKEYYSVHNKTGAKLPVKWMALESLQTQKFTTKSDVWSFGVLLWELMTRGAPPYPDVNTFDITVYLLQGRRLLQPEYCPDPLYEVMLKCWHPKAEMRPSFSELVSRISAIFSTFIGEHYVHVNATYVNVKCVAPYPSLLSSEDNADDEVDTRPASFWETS

| Structure (SMILES) | IC50 [nM] |
| --- | --- |
| CN(C)CCCOc1cnc(-c2cccc(CN3N=C(c4ccc(C#N)cc4)CSC3=O)c2)nc1 [Compound A9, 4-(3-{3-[5-(3-Dimethylaminopropoxy)pyrimidin-2-yl]-benzyl}-2-oxo-3,6-dihydro-2H-1,3,4-thiadiazin-5-yl)-benzonitrile] | 10 to 1000 |
| Cc1cnc(-c2cccc(CN3N=C(c4nccs4)CSC3=O)c2)nc1 [Compound A1, 3-[3-(5-methylpyrimidin-2-yl)benzyl]-5-thiazol-2-yl-3,6-dihydro-1,3,4-thiadiazin-2-one] | 10 to 1000 |
| N#Cc1ccc(C2=NN(Cc3cccc(-c4ncc(N)cn4)c3)C(=O)SC2)cc1 [Compound A6, 4-{3-[3-(5-Aminopyrimidin-2-yl)benzyl]-2-oxo-3,6-dihydro-2H-1,3,4-thiadiazin-5-yl}benzonitrile] | 10 to 1000 |
| COc1ccc(C2=NN(Cc3cccc(-c4ncc(N)cn4)c3)C(=O)SC2)cc1OC [Compound A5, 3-[3-(5-Aminopyrimidin-2-yl)benzyl]-5-(3,4-dimethoxyphenyl)-3,6-dihydro-1,3,4-thiadiazin-2-one] | 10 to 1000 |
| CN(C)CCCOc1cnc(-c2cccc(CN3N=C(c4nccs4)CSC3=O)c2)nc1 [Compound A7, 3-{3-[5-(3-Dimethylaminopropoxy)pyrimidin-2-yl]benzyl}-5-thiazol-2-yl-3,6-dihydro-1,3,4-thiadiazin-2-one] | 10 to 1000 |
| Nc1cnc(-c2cccc(CN3N=C(c4cc(F)cc(F)c4)CSC3=O)c2)nc1 [Compound A4, 3-[3-(5-aminopyrimidin-2-yl)benzyl]-5-(3,5-difluorophenyl)-3,6-dihydro-1,3,4-thiadiazin-2-one] | 10 to 1000 |
| CN(C)CCCOc1cnc(-c2cccc(CN3N=C(c4cc(F)cc(F)c4)CSC3=O)c2)nc1 [Compound A8, 5-(3,5-Difluorophenyl)-3-{3-[5-(3-dimethylamino-propoxy)pyrimidin-2-yl]benzyl}-3,6-dihydro-1,3,4-thiadiazin-2-one] | 10 to 1000 |
| Nc1cnc(-c2cccc(CN3N=C(c4nccs4)CSC3=O)c2)nc1 [Compound A10, 3-[3-(5-Aminopyrimidin-2-yl)benzyl]-5-thiazol-2-yl-3,6-dihydro-1,3,4-thiadiazin-2-one] | 10 to 1000 |
| Cc1nc(-c2cccc(CN3N=C(c4nccs4)CSC3=O)c2)no1 [Compound A3, 3-[3-(5-Methyl-1,2,4-oxadiazol-3-yl)benzyl]-5-thiazol-2-yl-3,6-dihydro-1,3,4-thiadiazin-2-one] | 1000 to 10000 |
| CN(C)/C=N/c1cnc(-c2cccc(CN3N=C(c4nccs4)CSC3=O)c2)nc1 [Compound A2, N,N-Dimethyl-N′-{2-[3-(2-oxo-5-thiazol-2-yl-6H-1,3,4-thiadiazin-3-ylmethyl)phenyl]pyrimidin-5-yl}formamidine] | 10 to 1000 |
